Measured values as given in US9101564B2, “Heparanase activity inhibitor, wrinkle improving agent containing same, and pharmaceutical composition” (Shiseido Company, Ltd., priority 2009, dated 2015).

Target: T1, heparanase (Homo sapiens, UniProt Q9Y251)
T1 construct: the supernatant was recovered as cell extract; endogenous in cells; host or cells: A431 (human epithelial carcinoma cells), Triton X-100 lysate
T1 sequence (Q9Y251 158-543 limits assumed): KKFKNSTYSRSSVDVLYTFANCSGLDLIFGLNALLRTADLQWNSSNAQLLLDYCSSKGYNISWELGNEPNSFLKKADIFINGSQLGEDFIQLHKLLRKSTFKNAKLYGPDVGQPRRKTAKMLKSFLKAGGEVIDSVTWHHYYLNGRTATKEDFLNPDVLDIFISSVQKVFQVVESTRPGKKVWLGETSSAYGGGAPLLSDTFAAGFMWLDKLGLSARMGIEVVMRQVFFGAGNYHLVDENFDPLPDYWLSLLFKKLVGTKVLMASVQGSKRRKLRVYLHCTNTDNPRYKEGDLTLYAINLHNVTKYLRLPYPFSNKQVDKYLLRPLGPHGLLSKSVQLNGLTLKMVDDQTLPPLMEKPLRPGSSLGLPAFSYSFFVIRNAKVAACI
T1 sequence (Q9Y251 36-109 limits assumed): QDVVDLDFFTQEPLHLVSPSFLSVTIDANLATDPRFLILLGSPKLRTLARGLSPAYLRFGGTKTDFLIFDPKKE
Experiment: Heparanase activity inhibition rate, A431 cell extract on biotinylated heparan sulfate-immobilized plate
Type: biochemical
Details: A431 cell extract 500 μg/mL, 37° C., 2 hours, DMSO 5%
Experimental: A431 cells (human epithelial carcinoma cells) were cultured in 10% serum-containing DMEM (Dulbecco's modified Eagle medium). The cultured cells were solubilized in lysis buffer (50 mM Tris, 0.5% TritonX-100, 0.15 M sodium chloride, pH 4.5) and collected with a scraper, and then pipetted and allowed to stand on ice for 30 minutes. This was followed by centrifugation at 10,000 rpm for 10 minutes to remove the insoluble portion, and the supernatant was recovered as cell extract. The amount of protein in the cell extract was measured with a BCA protein assay kit (BCA Protein Assay Kit, PIERCE, Calif. 46141).
The A431 cell extract was then diluted to 500 μg/mL with assay buffer (50 mM HEPES, 50 mM sodium acetate, 150 mM sodium chloride, 9 mM calcium chloride, 0.1% BSA). Next, the test compound was dissolved in DMSO and added to the diluted cell extract in proportions of 0.0005 mass %, 0.005 mass % and 0.05 mass %, and these were mixed to prepare sample solutions (DMSO final concentration: 5%). A control solution was prepared by mixing DMSO with the diluted cell extract to a final concentration of 5%. The sample solution and control solution were each seeded in a biotinylated heparan sulfate-immobilized plate at 100 μL/well. […] After further rinsing 3 times with PBS-T, TMB reagent (BIO-RAD, 172-1066) was added at 100 μL/well and reacted therewith, the reaction was terminated with 1N sulfuric acid, and the absorbance at 475 nm (OD475) was measured.
Also, DMSO was added to a serial diluent prepared with the aforementioned A431 cell extract assay buffer (cell extract concentrations: 500 μg/mL, 50 μg/mL, 5 μg/mL, 0.5 μg/mL), to a final concentration of 5% without addition of the test compound, to obtain a mixture (solution for calibration curve). The solution for the calibration curve was subjected to treatment by the same procedure described above, from seeding of the biotinylated heparan sulfate-immobilized plate, and the OD475 was measured. […]

Heparanase activity inhibition rate (added concentration 0.0005 mass %): 37.64%
Heparanase activity inhibition rate (added concentration 0.005 mass %): 75.98%
Heparanase activity inhibition rate (added concentration 0.05 mass %): 94.74%
Compound: CC(C)Cc1ccc(O)cc1O [4-Isobutylresorcinol, 4-isobutylresorcinol]
